According to patent US9273043B2, “TRPV1 antagonists including dihydroxy substituent and uses thereof” (Purdue Pharma L.P., priority 2011, dated 2016):

Assays:
human TRPV1 [1] = molecular target: T1, human TRPV1 (Homo sapiens (Human), UniProt Q8NER1); experiment: Capsaicin-based assay, Protocol 2, TRPV1/CHO cells (hCAP-CHO), Fluo-4 FLIPR; assay type: cell-based; conditions: 100 nM capsaicin, mean ± SEM
Source text: The TRPV1/CHO cell line was generated as described below. […] The resulting PCR products were purified from agarose gels using Gel Band Purification Kit (GE Healthcare Bioscience) and were subcloned into pCR-Blunt vector (Invitrogen). The cloned cDNA was fully sequenced using a fluorescent dye-terminator reagent (BigDye Terminator ver3.1 Cycle Sequencing Kit, Applied Biosystems) and ABI Prism 3100 genetic analyzer (Applied Biosystems). The pCR-Blunt vector containing the hTRPV1 cDNA was subjected to restriction digestion with EcoR1. The restriction fragment was subcloned into expression vector pcDNA3.1(-) (Invitrogen) and named pcDNA3.1(-)-hVR1 plasmid. The sequence of the cDNA encoding TRPV1 is available at GenBank accession number AJ277028. […] The cells were transfected with the pcDNA3.1(-)-hVR1 plasmid using FuGENE6 (Roche) according to the manufacturer's protocol. 24 hr after transfection, neomycin-resistant cells were selected using 1 mg/mL G418 (Nacalai Tesque). […] The cells expressing hTRPV1 were cultured in the growth medium supplemented with 1 mg/mL G418. […] Capsaicin-based Assay: […] Subsequently, the cells were loaded by incubation in 0.1 mL of wash buffer containing Fluo-4 at 3 μM final concentration. After 1 hour, the cells were washed twice with 0.2 mL wash buffer and resuspended in 0.1 mL wash buffer. The plates were then transferred to a Fluorescence Imaging Plate Reader (Molecular Devices). Fluorescence intensity was monitored for 15 seconds to establish a baseline. […] The final concentration of the compound was adjusted to range from 100 μM to 1.5625 μM. […] Data were collected over the entire time course and analyzed using Excel and the curve-fitting formula GraphPad Prism.

human TRPV1 [2] = molecular target: T1, human TRPV1; experiment: pH-based assay, Protocol 2, TRPV1/CHO cells (hpH-CHO), Fura-2 Ca2+ influx; assay type: cell-based; conditions: pH 5.0-5.1 (H2SO4), mean ± SEM
Protocol: For Protocol 2, a Chinese Hamster Ovary cell line (CHO) that has been engineered to constitutively express human recombinant TRPV1 was used (TRPV1/CHO cells). The TRPV1/CHO cell line was generated as described below.
TRPV1/CHO cells were seeded in the 96-well clear-bottom black-wall plate (Nunc) at densities of 1-2×10^4 cells/well and grown in 100 μL of culture medium (alpha-MEM supplemented with 10% FBS, 20 mM HEPES, 1 mg/mL geneticin and 1% antibiotic-antimycotic mixed stock solution) for 1-2 days before the experiment.
(1) Culture medium was removed using an 8-channel-pipette (Rainin, USA) from the 96-well plate and the wells were refilled with 100 μL of loading buffer (20 mM HEPES, 115 mM NaCl, 5.4 mM KCl, 0.8 mM MgCl2, 1.8 mM CaCl2, 13.8 mM D-glucose, 2.5 mM probenecid, pH 7.4) containing 5 μM Fura-2 AM (Dojin, Japan).
(2) The 96-well plate was incubated at 37° C. for 45 min.
(3) The loading buffer was removed from each well. The cells were subsequently washed twice with 150 μL of measuring buffer (20 mM HEPES, 115 mM NaCl, 5.4 mM KCl, 0.8 mM MgCl2, 5.0 mM CaCl2, 13.8 mM D-glucose, 0.1% BSA, pH 7.4) (no probenecid). The wells were then refilled with 80 μL of measuring buffer.
(4) After an incubation at 4° C. for 15 min, the 96-well plate was transferred to a model FDSS-3000 plate reader apparatus (Hamamatsu Photonics K.K., Japan).
(5) The Fura-2 fluorescent intensity was monitored at a wavelength of 340 nm and at 380 nm, respectively, at a rate of 0.5 Hz for a total of 240 seconds. After 16 time points (32 sec) of baseline detection, 20 μL of agonist solution was added to each well. The final volume was 100 μL/well.
(6) Fluorescence intensity ratio refers to the fluorescence intensity at 340 nm over the fluorescence intensity at 380 nm at a particular time point. The baseline was set as the average of the fluorescent intensity ratios for the first 16 time points before the addition of agonist solution. The maximum response was the highest fluorescent intensity ratio during the 60 time points following addition of agonist solution.
(7) Maximal signal ratios from each well were calculated as output data using the FDSS-3000 analysis program. Data were analyzed using Excel (Microsoft) and XLfit (idbs) software.
In an “agonist plate,” two different agonist solutions with different H2SO4 concentrations were used for the pH assay (see, e.g., FIG. 3A of U.S. Patent Application Publication No. US 2009/0170868 A1). For the first half of a 96-well plate one agonist solution was used; for the second half the other agonist solution was used. The agonist solutions were obtained by diluting sulfuric acid (1M H2SO4) with measuring buffer. The concentrations for the two agonist solutions were determined as described above in Section 2 of Protocol 2.
The sulfuric acid concentrations between the two agonist solutions differed by 0.5 mM. In the experiment described in Section 2 of Protocol 2, the sulfuric acid concentrations in the agonist solutions were determined to be 16 mM and 16.5 mM, respectively. After 1:4 dilution of the agonist solutions, the final sulfuric acid concentration was 3.2 mM and 3.3 mM, respectively. The resulting pH value for the pH assay was 5.0 to 5.1.
Test compounds were dissolved in DMSO to yield 1 mM stock solutions. The stock solutions were further diluted using DMSO in […] serial dilution steps with 6 points (1000, 250, 62.5, 15.625, 3.9062, and 0.977 μM). The thereby-obtained solutions were further diluted in measuring buffer (1:100) as 10× stock serial dilutions with a DMSO concentration of 1%. 10 μL of a 10× stock was added into each well of an “antagonist plate” (see step 3.3.(4) below). Thus, the final concentrations of antagonists was as follows: 0.977, 3.906, 15.63, 62.5, 250, and 1000 nM containing 0.1% DMSO (see, e.g., FIG. 3B of U.S. Patent Application Publication No. US 2009/0170868 A1).
Steps (1) and (2) of this Assay were the same as steps 2.2.(1) and 2.2.(2), respectively, of Protocol 2. […]

T1 sequence (Q8NER1 whole entry, looked up, the tested form may be a part): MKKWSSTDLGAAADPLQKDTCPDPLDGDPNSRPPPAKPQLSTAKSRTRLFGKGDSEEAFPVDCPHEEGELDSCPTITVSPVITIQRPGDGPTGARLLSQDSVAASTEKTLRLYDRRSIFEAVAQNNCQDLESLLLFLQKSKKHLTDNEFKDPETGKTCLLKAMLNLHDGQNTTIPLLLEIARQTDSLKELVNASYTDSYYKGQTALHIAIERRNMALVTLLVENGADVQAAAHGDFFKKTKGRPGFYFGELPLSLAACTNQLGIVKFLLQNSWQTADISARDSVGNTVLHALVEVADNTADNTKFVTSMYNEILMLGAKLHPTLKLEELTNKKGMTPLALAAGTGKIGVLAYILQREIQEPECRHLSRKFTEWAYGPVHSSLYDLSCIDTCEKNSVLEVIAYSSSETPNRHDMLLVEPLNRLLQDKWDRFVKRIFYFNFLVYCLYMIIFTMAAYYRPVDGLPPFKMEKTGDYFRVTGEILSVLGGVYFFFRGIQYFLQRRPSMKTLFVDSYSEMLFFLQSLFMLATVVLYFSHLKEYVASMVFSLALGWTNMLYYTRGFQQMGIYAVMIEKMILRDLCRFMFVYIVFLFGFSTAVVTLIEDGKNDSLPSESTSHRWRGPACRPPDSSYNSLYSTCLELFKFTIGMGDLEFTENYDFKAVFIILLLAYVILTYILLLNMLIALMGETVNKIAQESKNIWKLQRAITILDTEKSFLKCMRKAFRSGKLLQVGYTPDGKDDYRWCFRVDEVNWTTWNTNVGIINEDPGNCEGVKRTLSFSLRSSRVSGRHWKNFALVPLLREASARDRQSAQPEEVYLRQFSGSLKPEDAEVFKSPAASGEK

Row | Structure (SMILES) | IC50 (human TRPV1 [1]) [µM] | IC50 (human TRPV1 [2]) [µM]
1 | C[C@H](O)[C@@H](O)c1cnc(N2CCN(C(=O)Nc3nc4cc(F)ccc4s3)C[C@H]2C)c(F)c1 [B155(j), (R)-4-{5-[(1S,2S)-1,2-dihydroxypropyl]-3-fluoropyridin-2-yl}-N-(5-fluorobenzo[d]thiazol-2-yl)-3-methylpiperazine-1-carboxamide] | 0.344 ± 0.116 | 0.439 ± 0.071
2 | C[C@@H]1CN(C(=O)Nc2nc3cc(F)ccc3s2)CCN1c1ncc([C@H](O)CO)cc1F [A155(b), (R)-4-{5-[(S)-1,2-dihydroxyethyl]-3-fluoropyridin-2-yl}-N-(5-fluorobenzo[d]thiazol-2-yl)-3-methylpiperazine-1-carboxamide] | 0.216 ± 0.057 | 0.134 ± 0.016
3 | C[C@@H](O)[C@H](O)c1cnc(N2CCN(C(=O)Nc3nc4ccc(F)cc4s3)C[C@@H]2C)c(F)c1 [B125(p), (S)-4-Z{5-[(1R,2R)-1,2-dihydroxypropyl]-3-fluoropyridin-2-yl}-N-(5-fluorobenzo[d]thiazol-2-yl)-3-methylpiperazine-1-carboxamide] | 0.171 ± 0.001 | 0.211 ± 0.05
4 | Cc1ccc2nc(NC(=O)N3CCN(c4ncc([C@@H](O)CO)cc4F)C[C@H]3C)sc2c1 [A126(e), (R)-4-(5-((R)-1,2-dihydroxyethyl)-3-fluoropyridin-2-yl)-2-methyl-N-(6-methylbenzo[d]thiazol-2-yl)piperazine-1-carboxamide] | 0.0182 ± 0.0029 | 0.0004
5 | C[C@@H]1CN(C(=O)Nc2nc3ccccc3s2)CCN1c1ncc([C@@H](O)[C@@H](C)O)cc1F [B122(o), (R)—N-(benzo[d]thiazol-2-yl)-4-{5-[(1R,2R)-1,2-dihydroxypropyl]-3-fluoropyridin-2-yl}-3-methylpiperazine-1-carboxamide] | 0.199 ± 0.038 | 6.88
6 | C[C@@H]1CN(C(=O)Nc2nc3cc(F)c(F)cc3s2)CCN1c1ncc([C@@H](O)[C@@H](C)O)cc1F [B158(o), (R)—N-(5,6-difluorobenzo[d]thiazol-2-yl)-4-{5-[(1R,2R)-1,2-dihydroxypropyl]-3-fluoropyridin-2-yl}-3-methylpiperazine-1-carboxamide] | 0.146 ± 0.052 | 0.171 ± 0.029
7 | C[C@@H]1CN(C(=O)Nc2nc3ccc(F)cc3s2)CCN1c1ncc([C@@H](O)[C@@H](C)O)cc1F [B125(o), (R)-4-{5-[(1R,2R)-1,2-dihydroxypropyl]-3-fluoropyridin-2-yl}-N-(6-fluorobenzo[d]thiazol-2-yl)-3-methylpiperazine-1-carboxamide] | 0.309 ± 0.105 | 0.398 ± 0.152
8 | C[C@H](O)[C@@H](O)c1cnc(N2CCN(C(=O)Nc3nc4ccccc4s3)C[C@H]2C)c(F)c1 [B122(j), (R)—N-(benzo[d]thiazol-2-yl)-4-{5-[(1S,2S)-1,2-dihydroxypropyl]-3-fluoropyridin-2-yl}-3-methylpiperazine-1-carboxamide] | 0.586 ± 0.078 | 1.72
